Assay results taken from patent US20170290774A1, “NEUROKININ-1 RECEPTOR ANTAGONIST COMPOSITION FOR TREATMENT OF DISEASES AND CONDITIONS OF THE RESPIRATORY TRACT” (PLUS VITECH, S.L., priority 2014, published 2017).

Experiments:
[1] = tested on: MMP-9; test: Immunohistochemistry of MMP-9 in respiratory tract tissue of sodium hypochlorite aerosol-treated rabbits; format: in vivo, New Zealand albino rabbits
Source text: (§1) It is known that the factors TGF-α, TGF-β 1, TGF-β 2, TGF-β 3, SPARC, MMP-3; MMP-7, MMP-9, MMP-11, MMP-13 and MMP-14, TGF-β, NF-kB, EGF, MMP-9, VEGF and TNF-α which are produced by lung cells (pneumocytes, fibroblasts and vascular endothelial cells) and inflammatory cells (macrophages, lymphocytes and polymorphonuclear leukocytes) are involved in the pathophysiology and development of said respiratory tract diseases. […] Herein, 27 New Zealand albino rabbits (New Zealand White Rabbit) with an initial average weight about 3 kg were used in this example. All subjects were administered an aerosol of a solution consisting of a mixture of water and sodium hypochlorite (35 g sodium hypochlorite per liter of water) at a rate of 5 mL of said solution by inhalation three times a day for 7 days (days 1 to 7 of experimentation). Subsequently, from days 3 to 7, a group of 3 rabbits (Group 1) was administered an oral dose of 10 mg/kg body weight per day, another group of 3 rabbits (Group 2) was administered an oral dose of 40 mg/kg body weight per day, a third group (Group 3) was administered an oral dose of 80 mg/kg body weight per day and a fourth group (Group 4) was administered an oral dose of 100 mg/kg body weight per day. […] This mixture was administered as an aerosol by inhalation, also from days 3 to 7, to a group of 3 rabbits (group 5) at a dose of 0.05 mg/kg body weight per day, to another group of three rabbits (Group 6) at a dose of 0.1 mg/kg body weight per day, to another group of three rabbits (Group 7) at a dose of 0.2 mg/kg body weight per day and to another group of three rabbits (Group 8) at a dose of 0.4 mg/kg body weight per day. A placebo consisting only of olive oil was administered from days 3 to 7 to a control group of 3 rabbits (placebo group). In parallel, 3 rabbits were kept under identical conditions but were not administered any treatment nor the aforementioned sodium hypochlorite solution (control group). […] On day 7 of the experiment all animals were euthanized and necropsied. […] Samples were taken at the peripheral level of the lung parenchyma, just below the pleural surface. Tissue samples were also taken from the nasal cavity, pharynx, larynx and bronchi. Immunohistochemistry studies were performed for all samples to evaluate the levels of the markers TGF-α, TGF-β 1, TGF-β 2, TGF-β 3 SPARC, MMP-3; MMP-7, MMP-9, MMP-11, MMP-14, TGF-β, TNF-α and VEGF. In said immunohistochemistry studies, a sample of each sample was dehydrated by treatment with increasing concentrations of ethanol and finally xylene. Subsequently said dried samples were embedded in paraffin, thus creating a block. Said paraffin blocks were cut on a microtome to a thickness of 5 μm, and the resulting sections (slices) were placed on slides suitable for conducting immunohistochemistry techniques. Subsequently, the sections were deparaffinised by immersion in xylene and then rehydrated through immersion in a series of solutions containing decreasing concentrations of ethanol and, finally, water. […] The samples were then allowed to cool to room temperature over 10 minutes. Endogenous peroxidase activity was blocked by treatment with 3% hydrogen peroxide over 30 min at room temperature. […] In order to verify the expression of NK1 receptors, the cell samples were incubated in the presence of anti-NK1 antibodies ([…], Sigma-Aldrich) diluted 1:1000 at 4° C. overnight. After this time they were washed in 0.05M Tris buffer at room temperature. Subsequently, Envision System-HRP (Dako) reagents were added for 30 min at room temperature. Once this time had expired, the samples were again washed with 0.05 M Tris buffer, and immunoreactivity was visualized by light microscopy with a chromogenic solution with 3,3'-diaminobenzidine (DAB+; Dako, USA). In order to differentiate the cell nuclei, these were lightly stained with haematoxylin. Samples that were not incubated with the primary antibody, but wherein this was replaced by a non-immune serum were used as negative controls. […]

[2] = tested on: TGFβ3; test: Immunohistochemistry of TGFβ3 in respiratory tract tissue of sodium hypochlorite aerosol-treated rabbits; format: in vivo, New Zealand albino rabbits
Source text: as §1

[3] = bronchial tissue, Group 1, oral 10 mg/kg per day
[4] = bronchial tissue, Group 2, oral 40 mg/kg per day
[5] = bronchial tissue, Group 3, oral 80 mg/kg per day
[6] = bronchial tissue, Group 4, oral 100 mg/kg per day
[7] = laryngeal tissue, Group 1, oral 10 mg/kg per day
[8] = laryngeal tissue, Group 2, oral 40 mg/kg per day
[9] = laryngeal tissue, Group 3, oral 80 mg/kg per day
[10] = laryngeal tissue, Group 4, oral 100 mg/kg per day
[11] = laryngeal tissue, Group 5, inhalation 0.05 mg/kg per day
[12] = laryngeal tissue, Group 6, inhalation 0.1 mg/kg per day
[13] = laryngeal tissue, Group 7, inhalation 0.2 mg/kg per day
[14] = laryngeal tissue, Group 8, inhalation 0.4 mg/kg per day
[15] = lung tissue, Group 1, oral 10 mg/kg per day
[16] = lung tissue, Group 2, oral 40 mg/kg per day
[17] = lung tissue, Group 3, oral 80 mg/kg per day
[18] = lung tissue, Group 4, oral 100 mg/kg per day
[19] = lung tissue, Group 5, inhalation 0.05 mg/kg per day
[20] = lung tissue, Group 6, inhalation 0.1 mg/kg per day
[21] = lung tissue, Group 7, inhalation 0.2 mg/kg per day
[22] = lung tissue, Group 8, inhalation 0.4 mg/kg per day
[23] = nasal cavity tissue, Group 1, oral 10 mg/kg per day
[24] = nasal cavity tissue, Group 2, oral 40 mg/kg per day
[25] = nasal cavity tissue, Group 3, oral 80 mg/kg per day
[26] = nasal cavity tissue, Group 4, oral 100 mg/kg per day
[27] = nasal cavity tissue, Group 5, inhalation 0.05 mg/kg per day
[28] = nasal cavity tissue, Group 6, inhalation 0.1 mg/kg per day
[29] = nasal cavity tissue, Group 7, inhalation 0.2 mg/kg per day
[30] = nasal cavity tissue, Group 8, inhalation 0.4 mg/kg per day
[31] = pharyngeal tissue, Group 1, oral 10 mg/kg per day
[32] = pharyngeal tissue, Group 2, oral 40 mg/kg per day
[33] = pharyngeal tissue, Group 3, oral 80 mg/kg per day
[34] = pharyngeal tissue, Group 4, oral 100 mg/kg per day
[35] = pharyngeal tissue, Group 5, inhalation 0.05 mg/kg per day
[36] = pharyngeal tissue, Group 6, inhalation 0.1 mg/kg per day
[37] = pharyngeal tissue, Group 7, inhalation 0.2 mg/kg per day
[38] = pharyngeal tissue, Group 8, inhalation 0.4 mg/kg per day

SMILES: C[C@@H](OC1OCCN(Cc2nc(=O)[nH][nH]2)C1c1ccc(F)cc1)c1cc(C(F)(F)F)cc(C(F)(F)F)c1 (stereo in doubt) [Aprepitant, 5-([(2R,3S)-2-((R)-1-[3,5-bis(trifluoromethyl)phenyl]ethoxy)-3-(4-fluorophenyl)morpholino]methyl)-1H-1,2,4-triazol-3(2H)-one]
- Percent increase in MMP-9 with respect to the control group [1, 3]: 749.34%
- Percent increase in MMP-9 with respect to the control group [1, 4]: 672.94%
- Percent increase in MMP-9 with respect to the control group [1, 5]: 495.87%
- Percent increase in MMP-9 with respect to the control group [1, 6]: 305.34%
- % Med G5/C: percent increase in marker MMP-9 with respect to the control group ([1]; bronchial tissue, Group 5): 673.45%
- % Med G6/C: percent increase in marker MMP-9 with respect to the control group ([1]; bronchial tissue, Group 6): 452.61%
- % Med G7/C: percent increase in marker MMP-9 with respect to the control group ([1]; bronchial tissue, Group 7): 325.54%
- % Med G8/C: percent increase in marker MMP-9 with respect to the control group ([1]; bronchial tissue, Group 8): 153.34%
- Percent increase in MMP-9 with respect to the control group [1, 7]: 1,290.89%
- Percent increase in MMP-9 with respect to the control group [1, 8]: 983.98%
- Percent increase in MMP-9 with respect to the control group [1, 9]: 898.18%
- Percent increase in MMP-9 with respect to the control group [1, 10]: 788.78%
- Percent increase in MMP-9 with respect to the control group [1, 11]: 989.34%
- Percent increase in MMP-9 with respect to the control group [1, 12]: 567.37%
- Percent increase in MMP-9 with respect to the control group [1, 13]: 256.47%
- Percent increase in MMP-9 with respect to the control group [1, 14]: 123.23%
- Percent increase in MMP-9 with respect to the control group [1, 15]: 566.19%
- Percent increase in MMP-9 with respect to the control group [1, 16]: 384.44%
- Percent increase in MMP-9 with respect to the control group [1, 17]: 338.57%
- Percent increase in MMP-9 with respect to the control group [1, 18]: 326.02%
- Percent increase in MMP-9 with respect to the control group [1, 19]: 570.94%
- Percent increase in MMP-9 with respect to the control group [1, 20]: 267.29%
- Percent increase in MMP-9 with respect to the control group [1, 21]: 183.98%
- Percent increase in MMP-9 with respect to the control group [1, 22]: 156.83%
- Percent increase in MMP-9 with respect to the control group [1, 23]: 1,355.64%
- Percent increase in MMP-9 with respect to the control group [1, 24]: 768.75%
- Percent increase in MMP-9 with respect to the control group [1, 25]: 511.58%
- Percent increase in MMP-9 with respect to the control group [1, 26]: 328.92%
- Percent increase in MMP-9 with respect to the control group [1, 27]: 1,289.77%
- Percent increase in MMP-9 with respect to the control group [1, 28]: 588.48%
- Percent increase in MMP-9 with respect to the control group [1, 29]: 291.36%
- Percent increase in MMP-9 with respect to the control group [1, 30]: 143.08%
- Percent increase in MMP-9 with respect to the control group [1, 31]: 1,102.28%
- Percent increase in MMP-9 with respect to the control group [1, 32]: 945.34%
- Percent increase in MMP-9 with respect to the control group [1, 33]: 789.45%
- Percent increase in MMP-9 with respect to the control group [1, 34]: 561.21%
- Percent increase in MMP-9 with respect to the control group [1, 35]: 998.67%
- Percent increase in MMP-9 with respect to the control group [1, 36]: 505.32%
- Percent increase in MMP-9 with respect to the control group [1, 37]: 212.24%
- Percent increase in MMP-9 with respect to the control group [1, 38]: 121.23%
- Percent increase in TGFβ3 with respect to the control group [2, 3]: 672.56%
- Percent increase in TGFβ3 with respect to the control group [2, 4]: 452.45%
- Percent increase in TGFβ3 with respect to the control group [2, 5]: 345.32%
- Percent increase in TGFβ3 with respect to the control group [2, 6]: 236.12%
- % Med G5/C: percent increase in marker TGFβ with respect to the control group ([2]; bronchial tissue, Group 5): 604.34%
- % Med G6/C: percent increase in marker TGFβ with respect to the control group ([2]; bronchial tissue, Group 6): 439.53%
- % Med G7/C: percent increase in marker TGFβ with respect to the control group ([2]; bronchial tissue, Group 7): 234.56%
- % Med G8/C: percent increase in marker TGFβ with respect to the control group ([2]; bronchial tissue, Group 8): 179.19%
- Percent increase in TGFβ3 with respect to the control group [2, 7]: 1,234.56%
- Percent increase in TGFβ3 with respect to the control group [2, 8]: 1,009.78%
- Percent increase in TGFβ3 with respect to the control group [2, 9]: 899.98%
- Percent increase in TGFβ3 with respect to the control group [2, 10]: 567.89%
- Percent increase in TGFβ3 with respect to the control group [2, 11]: 1,183.45%
- Percent increase in TGFβ3 with respect to the control group [2, 12]: 702.33%
- Percent increase in TGFβ3 with respect to the control group [2, 13]: 305.32%
- Percent increase in TGFβ3 with respect to the control group [2, 14]: 132.22%
- Percent increase in TGFβ3 with respect to the control group [2, 15]: 835.84%
- Percent increase in TGFβ3 with respect to the control group [2, 16]: 655.71%
- Percent increase in TGFβ3 with respect to the control group [2, 17]: 496.55%
- Percent increase in TGFβ3 with respect to the control group [2, 18]: 374.47%
- Percent increase in TGFβ3 with respect to the control group [2, 19]: 775.37%
- Percent increase in TGFβ3 with respect to the control group [2, 20]: 427.90%
- Percent increase in TGFβ3 with respect to the control group [2, 21]: 215.59%
- Percent increase in TGFβ3 with respect to the control group [2, 22]: 169.46%
- Percent increase in TGFβ3 with respect to the control group [2, 23]: 2,813.99%
- Percent increase in TGFβ3 with respect to the control group [2, 24]: 2,128.24%
- Percent increase in TGFβ3 with respect to the control group [2, 25]: 1,451.25%
- Percent increase in TGFβ3 with respect to the control group [2, 26]: 1,188.89%
- Percent increase in TGFβ3 with respect to the control group [2, 27]: 2,168.67%
- Percent increase in TGFβ3 with respect to the control group [2, 28]: 1,051.06%
- Percent increase in TGFβ3 with respect to the control group [2, 29]: 482.03%
- Percent increase in TGFβ3 with respect to the control group [2, 30]: 158.62%
- Percent increase in TGFβ3 with respect to the control group [2, 31]: 967.72%
- Percent increase in TGFβ3 with respect to the control group [2, 32]: 879.34%
- Percent increase in TGFβ3 with respect to the control group [2, 33]: 659.59%
- Percent increase in TGFβ3 with respect to the control group [2, 34]: 456.45%
- Percent increase in TGFβ3 with respect to the control group [2, 35]: 879.45%
- Percent increase in TGFβ3 with respect to the control group [2, 36]: 543.45%
- Percent increase in TGFβ3 with respect to the control group [2, 37]: 309.45%
- Percent increase in TGFβ3 with respect to the control group [2, 38]: 112.43%
